Experiment: Short-term stability in spiked pooled human plasma (bench-top, 4 °C, 56 °C)

For `CS(=O)(=O)c1ccc(C(=O)Nc2ccc(Cl)c(-c3ccccn3)c2)c(Cl)c1` [Vismodegib], the “Short-time stability (1h, 56°C) Accuracy [%]” value (validation standard 2xLLOV) was 63.8%, the “Short-time stability (24h, 4°C, without daylight) Accuracy [%]” value (validation standard 2xLLOV) was 105.0% and the “Short-time stability (24h, RT, with daylight) Accuracy [%]” value (validation standard 2xLLOV) was 114.6%. The “Short-time stability (24h, RT, without daylight) Accuracy [%]” value (validation standard 2xLLOV) was 117.6%, the “Short-time stability (1h, 56°C) Accuracy [%]” value (validation standard LLOV) was 34.2% and the “Short-time stability (24h, 4°C, without daylight) Accuracy [%]” value (validation standard LLOV) was 87.2%. For the same compound, the “Short-time stability (24h, RT, with daylight) Accuracy [%]” value (validation standard LLOV) was 96.1%, the “Short-time stability (24h, RT, without daylight) Accuracy [%]” value (validation standard LLOV) was 99.6% and the “Short-time stability (1h, 56°C) Accuracy [%]” value (validation standard MOV) was 65.7%. The “Short-time stability (24h, 4°C, without daylight) Accuracy [%]” value (validation standard MOV) was 105.3%, the “Short-time stability (24h, RT, with daylight) Accuracy [%]” value (validation standard MOV) was 111.1% and the “Short-time stability (24h, RT, without daylight) Accuracy [%]” value (validation standard MOV) was 114.6%. For the same compound, the “Short-time stability (1h, 56°C) Accuracy [%]” value (validation standard ULOV) was 54.4%, the “Short-time stability (24h, 4°C, without daylight) Accuracy [%]” value (validation standard ULOV) was 94.5% and the “Short-time stability (24h, RT, with daylight) Accuracy [%]” value (validation standard ULOV) was 103.5%. The “Short-time stability (24h, RT, without daylight) Accuracy [%]” value (validation standard ULOV) was 104.5%.

From article PMC8699473, “An Easily Expandable Multi-Drug LC-MS Assay for the Simultaneous Quantification of 57 Oral Antitumor Drugs in Human Plasma” (Cancers, 2021)
